Experimental findings from patent US10016469B2, “Composition comprising antifungal agents for treating vulvovaginitis and vaginosis” (Two Lines Co., Ltd., priority 2015, dated 2018) are described below.

The subject of test [1] is G. vaginalis, standard microorganism (ATCC 14018). Kind of test: Antibiotic disk diffusion assay. Particulars: G. vaginalis ATCC 14018, Columbia agar with 5% human red blood cell solution. The test is classed as cell-based, Gardnerella vaginalis. As to the method:
To screen antibiotics to which Gardnerella vaginalis (G. vaginalis) is sensitive, and are resistant to probiotics, antibiotics were tested using a disk diffusion assay.
(§1) Columbia agar containing a 5% human red blood cell solution was used as a media for Gardnerella vaginalis (G. vaginalis, ATCC 14018) and a MRS agar was used as a media for the strains of the present invention (S. denitnficans YH1 and L. crispatus YH2). As the antibiotic disk, a product manufactured by OXIOD was used.
(§2) As described above, augmentin, metronidazole, and clindamycin were applied to a wild-type Gardnerella vaginalis (G. vaginalis) strain obtained from 33 patients suffering from bacterial vaginosis and a standard microorganism (ATCC 14018) and subjected to a test using a disk diffusion assay.

Another test deals with S. denitrificans YH1. Briefly: Antibiotic disk diffusion assay. The test is classed as cell-based. Particulars: S. denitrificans YH1, MRS agar. As to the method:
(§3) To screen antibiotics to which Gardnerella vaginalis (G. vaginalis) is sensitive, and are resistant to probiotics, antibiotics were tested using a disk diffusion assay. Columbia agar containing a 5% human red blood cell solution was used as a media for Gardnerella vaginalis (G. vaginalis, ATCC 14018) and a MRS agar was used as a media for the strains of the present invention ([…]1 and L. crispatus YH2). As the antibiotic disk, a product manufactured by OXIOD was used.

For a further test, the system named is L. crispatus YH2. Kind of test: Antibiotic disk diffusion assay. The test is classed as cell-based, Lactobacillus crispatus. The settings on record: L. crispatus YH2, MRS agar. The procedure:
as §3
Background: Agar diffusion results depend on both activity and mobility in agar.

Test [2] has as its system wild-type Gardnerella vaginalis (G. vaginalis) strain obtained from 33 patients suffering from bacterial vaginosis. Briefly: Antibiotic disk diffusion assay on clinical isolates. The test is classed as cell-based. The settings on record: for Diameter of inhibition zone per antibiotic, Average ± SD: average over the G. vaginalis strains of Table 11.
Text: as §1, §2

Where [3] appears, read: G. vaginalis strain 14-1, biotype 1.
Setting [4] is: G. vaginalis strain 14-2, biotype 5.
The mark [5] stands for this setting: G. vaginalis strain 14-3, biotype 4.
Setting [6] is: G. vaginalis strain 14-4, biotype 6.
The mark [7] stands for this setting: G. vaginalis strain 14-5, biotype 4.
Setting [8] is: G. vaginalis strain 14-6, biotype 1.
[9] abbreviates: G. vaginalis strain 14-7, biotype 5.
Where [10] appears, read: G. vaginalis strain 14-8, biotype 3.
Where [11] appears, read: G. vaginalis strain 14-9, biotype 2.
Setting [12] is: G. vaginalis strain 14-10, biotype 3.
Where [13] appears, read: G. vaginalis strain 14-11, biotype 2.
The mark [14] stands for this setting: G. vaginalis strain 14-12, biotype 5.
Where [15] appears, read: G. vaginalis strain 14-13, biotype 5.
The mark [16] stands for this setting: G. vaginalis strain 14-14, biotype 4.
The mark [17] stands for this setting: G. vaginalis strain 14-15, biotype 5.
[18] abbreviates: G. vaginalis strain 14-16, biotype 8.
Setting [19] is: G. vaginalis strain 14-17, biotype 5.
Where [20] appears, read: G. vaginalis strain 14-19, biotype 5.
Where [21] appears, read: G. vaginalis strain 14-20, biotype 7.
Where [22] appears, read: G. vaginalis strain 14-21, biotype 8.
The mark [23] stands for this setting: G. vaginalis strain 14-23, biotype 8.
The mark [24] stands for this setting: G. vaginalis strain 14-24, biotype 8.
Where [25] appears, read: G. vaginalis strain 14-25, biotype 5.
The mark [26] stands for this setting: G. vaginalis strain 14-26, biotype 5.
The mark [27] stands for this setting: G. vaginalis strain 14-27, biotype 4.
The mark [28] stands for this setting: G. vaginalis strain 14-28, biotype 5.
[29] abbreviates: G. vaginalis strain 14-29, biotype 5.
The mark [30] stands for this setting: G. vaginalis strain 14-30, biotype 5.
Setting [31] is: G. vaginalis strain 14-32, biotype 5.
The mark [32] stands for this setting: G. vaginalis strain 14-33, biotype 7.
The mark [33] stands for this setting: G. vaginalis strain 14-34, biotype 5.
[34] abbreviates: G. vaginalis strain 14-36, biotype 5.
Setting [35] is: G. vaginalis strain 14-37, biotype 1.

For the compound Trimethoprim sulfamethoxazole, the “diameter of inhibition zone” value (in test [1]; in the test on S. denitrificans YH1; with L. crispatus YH2) was 0 mm throughout.
Turning to `CC1(C)S[C@@H]2[C@H](NC(=O)[C@H](N)c3ccccc3)C(=O)N2[C@H]1C(=O)O` [Ampicillin], the figures for the “diameter of inhibition zone” value (in test [1]; in the test on S. denitrificans YH1; with L. crispatus YH2) were 10 mm, 0 mm and 0 mm, respectively.
On to `C[C@@H](O)[C@H]1C(=O)N2C(C(=O)O)=C(SCCN=CN)C[C@H]12` [Imipenem], for which the “diameter of inhibition zone” value is 40 mm in test [1], 30 mm in the test on S. denitrificans YH1 and 25 mm in the test with L. crispatus YH2.
For `Cc1ncc([N+](=O)[O-])n1CCO` [Metronidazole], the “diameter of inhibition zone” value in test [1] is 0 mm. In test [2] (21 of 33 wild-type strains, metronidazole 50 μg/disc), the “share of wild-type G. vaginalis strains on which no inhibitory effect was shown” value is on record as 64%. In test [2] (Biotype 5, 14 of 15 strains), the “share of Biotype 5 strains completely resistant” value is recorded as 93%. Moreover, the “Diameter of inhibition zone per antibiotic” value came to 27 mm in test [2] (setting [3]); 0 mm in test [2] (setting [4]); 40 mm in test [2] (setting [5]); 35 mm in test [2] (setting [6]); 35 mm in test [2] (setting [7]); 32 mm in test [2] (setting [8]). In addition, the “Diameter of inhibition zone per antibiotic” value in test [2] (setting [9]), in test [2] (setting [10]), in test [2] (setting [11]), in test [2] (setting [12]), in test [2] (setting [13]) and in test [2] (setting [14]) was 0 mm each time. The “Diameter of inhibition zone per antibiotic” value in test [2] (setting [15]) is given as 0 mm; in test [2] (setting [16]), 35 mm; in test [2] (setting [17]), 0 mm; in test [2] (setting [18]), 25 mm; in test [2] (setting [19]), 0 mm; in test [2] (setting [20]), 0 mm. Also, the “Diameter of inhibition zone per antibiotic” value is given as 0 mm in test [2] (setting [21]); 30 mm in test [2] (setting [22]); 33 mm in test [2] (setting [23]); 20 mm in test [2] (setting [24]); 25 mm in test [2] (setting [25]); 0 mm in test [2] (setting [26]). Besides, the “Diameter of inhibition zone per antibiotic” value in test [2] (setting [27]), in test [2] (setting [28]), in test [2] (setting [29]), in test [2] (setting [30]), in test [2] (setting [31]) and in test [2] (setting [32]) was 0 mm in each case. The “Diameter of inhibition zone per antibiotic” value came out at 0 mm in test [2] (setting [33]), 0 mm in test [2] (setting [34]) and 20 mm in test [2] (setting [35]). In addition, the zone of inhibition at 50 µg/disc in test [2] (Gardnerella vaginalis, 12 sensitive wild-type strains, metronidazole 50 μg/disc, read-out: inhibition zones for the remaining 12 strains) was 20 to 40 mm.
As for `CO/N=C(\C(=O)N[C@@H]1C(=O)N2C(C(=O)O)=C(COC(C)=O)CS[C@H]12)c1csc(N)n1` [Cefotaxime], the “diameter of inhibition zone” value amounted to 10 mm in test [1], 0 mm in the test with S. denitrificans YH1 and 0 mm in the test on L. crispatus YH2.
Consider `CC1(C)S[C@@H]2[C@H](NC(=O)C(C(=O)O)c3ccccc3)C(=O)N2[C@H]1C(=O)O` (stereo partly shown) [Carbenicillin], for which the “diameter of inhibition zone” value was found to be 40 mm in test [1], 35 mm with S. denitrificans YH1 and 35 mm in the test on L. crispatus YH2.
For `CC1(C)S[C@@H]2[C@H](NC(=O)Cc3ccccc3)C(=O)N2[C@H]1C(=O)O` [Penicillin G], the “diameter of inhibition zone” value is listed as 10 mm in test [1], 0 mm with S. denitrificans YH1 and 0 mm with L. crispatus YH2.
On to `Cc1onc(-c2ccccc2)c1C(=O)N[C@@H]1C(=O)N2[C@@H]1SC(C)(C)[C@@H]2C(=O)O` [Oxacillin], for which the “diameter of inhibition zone” value (in test [1]; in the test on S. denitrificans YH1; with L. crispatus YH2) was 0 mm in each case.
As for `CCC[C@@H]1C[C@@H](C(=O)N[C@@H]([C@H]2O[C@H](SC)[C@H](O)[C@@H](O)[C@H]2O)[C@H](C)Cl)N(C)C1` [Clindamycin], in test [1], the “diameter of inhibition zone” value was 55 mm. For the same compound, the “Diameter of inhibition zone per antibiotic” value in test [2] (setting [3]) worked out at 50 mm; in test [2] (setting [4]), 60 mm; in test [2] (setting [5]) it was 55 mm; in test [2] (setting [6]), 50 mm; in test [2] (setting [7]), 45 mm; in test [2] (setting [8]) it was 45 mm. Also, the “Diameter of inhibition zone per antibiotic” value in test [2] (setting [9]) came out at 60 mm; in test [2] (setting [10]), 50 mm; in test [2] (setting [11]) it was 50 mm; in test [2] (setting [12]) it was 55 mm; in test [2] (setting [13]), 60 mm; in test [2] (setting [14]), 50 mm. In addition, the “Diameter of inhibition zone per antibiotic” value came to 55 mm in test [2] (setting [15]); 50 mm in test [2] (setting [16]); 60 mm in test [2] (setting [17]); 60 mm in test [2] (setting [18]); 55 mm in test [2] (setting [19]); 55 mm in test [2] (setting [20]). The “Diameter of inhibition zone per antibiotic” value in test [2] (setting [21]) was 50 mm; in test [2] (setting [22]) it was 50 mm; in test [2] (setting [23]) it was 55 mm; in test [2] (setting [24]), 50 mm; in test [2] (setting [25]), 55 mm; in test [2] (setting [26]), 65 mm. Further, the “Diameter of inhibition zone per antibiotic” value in test [2] (setting [27]) is listed as 55 mm; in test [2] (setting [28]), 60 mm; in test [2] (setting [29]), 65 mm; in test [2] (setting [30]) it was 65 mm; in test [2] (setting [31]), 60 mm; in test [2] (setting [32]) it was 55 mm. Also, the “Diameter of inhibition zone per antibiotic” value in test [2] (setting [33]), in test [2] (setting [34]) and in test [2] (setting [35]) was 60 mm in each case. The “Diameter of inhibition zone per antibiotic, Average ± SD” value in test [2] is 55.45 ± 5.5 mm; in test [2] (listed as clindamycin), 55.45±5.5 mm.
Turning to `CN[C@H](CC(C)C)C(=O)N[C@H]1C(=O)N[C@@H](CC(N)=O)C(=O)N[C@H]2C(=O)N[C@H]3C(=O)N[C@H](C(=O)N[C@H](C(=O)O)c4cc(O)cc(O)c4-c4cc3ccc4O)[C@H](O)c3ccc(c(Cl)c3)Oc3cc2cc(c3O[C@@H]2O[C@H](CO)[C@@H](O)[C@H](O)[C@H]2O[C@H]2C[C@](C)(N)[C@H](O)[C@H](C)O2)Oc2ccc(cc2Cl)[C@H]1O` [Vancomycin], the “diameter of inhibition zone” value turned out to be 40 mm in test [1], 35 mm in the test on S. denitrificans YH1 and 35 mm with L. crispatus YH2.
Take Gentamicin: the “diameter of inhibition zone” value (in test [1]; in the test on S. denitrificans YH1; with L. crispatus YH2) was 0 mm each time.
